The source made the active and inactive calls. No cut-off for these calls is given here.
These compounds were tested against T1, Histone-lysine N-methyltransferase SETD7 (Homo sapiens) (UniProt Q8WTS6) (assay: Inhibition of human recombinant SET7/9 in cell free system assessed as monomethylation of histone H3 Lys4 residue after 1 hr in presence of 2 uM AdoMet).
T1 sequence (whole entry): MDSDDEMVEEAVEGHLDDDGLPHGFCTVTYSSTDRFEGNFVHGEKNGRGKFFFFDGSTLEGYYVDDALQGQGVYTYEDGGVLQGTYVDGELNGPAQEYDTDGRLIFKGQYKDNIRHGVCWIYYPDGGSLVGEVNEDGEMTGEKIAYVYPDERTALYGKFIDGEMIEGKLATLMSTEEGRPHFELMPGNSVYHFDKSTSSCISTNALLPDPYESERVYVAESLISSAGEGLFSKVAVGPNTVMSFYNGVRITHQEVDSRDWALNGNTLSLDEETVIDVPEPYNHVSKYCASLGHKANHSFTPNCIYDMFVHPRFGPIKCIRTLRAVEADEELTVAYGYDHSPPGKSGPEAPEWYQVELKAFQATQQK

Row | Compound | inhibition
1 | CCCCCCN(CC[C@H](N)C(=O)O)C[C@H]1O[C@@H](n2cnc3c(N)ncnc32)[C@H](O)[C@@H]1O | inactive
2 | CCCNCCN(CC[C@H](N)C(=O)O)C[C@H]1O[C@@H](n2cnc3c(N)ncnc32)[C@H](O)[C@@H]1O | Active
3 | CNCCN(CC[C@H](N)C(=O)O)C[C@H]1O[C@@H](n2cnc3c(N)ncnc32)[C@H](O)[C@@H]1O | Active

More lines, now with the values ahead:

Row | inhibition | Compound
4 | Active | CCCCCCNCCN(CC[C@H](N)C(=O)O)C[C@H]1O[C@@H](n2cnc3c(N)ncnc32)[C@H](O)[C@@H]1O
5 | Active | Nc1ncnc2c1ncn2[C@@H]1O[C@H](CN(CCNCCc2ccccc2)CC[C@H](N)C(=O)O)[C@@H](O)[C@H]1O

Source: ChEMBL document CHEMBL1287732, “Development of novel bisubstrate-type inhibitors of histone methyltransferase SET7/9” (Bioorg Med Chem, 2010)
